This note sets out measurements from patent US10934277B2, “Enantiomerically purified GPER agonist for use in treating disease states and conditions” (Linnaeus Therapeutics, Inc., priority 2018, dated 2021).

In one data set the target is HTR2B (Homo sapiens, UniProt P41595). Description: Off target selectivity assay, HTR2B. The settings on record: dose response, concentrations up to 10 μM; read-out: IC50 or EC50 on HTR2B. The class given is cell-based. As to the method:
(§1) Final assay vehicle concentration was 1%.
(§2) For Gi coupled GPCRs, EC80 forskolin was included.
(§3) DMSO concentration for all readouts is ≤0.2%.
(§4) Probenicid was prepared fresh. Cells were loaded with dye prior to testing.

The target in the next data set is OPRD1 (Homo sapiens, UniProt P41143). In words: Off target selectivity assay, OPRD1. In kind it is cell-based. The settings on record: dose response, concentrations up to 10 μM; read-out: IC50 or EC50 on OPRD1. The method, then: as §1, §2, §3, §4
Chain of OPRD1 (P41143 whole entry): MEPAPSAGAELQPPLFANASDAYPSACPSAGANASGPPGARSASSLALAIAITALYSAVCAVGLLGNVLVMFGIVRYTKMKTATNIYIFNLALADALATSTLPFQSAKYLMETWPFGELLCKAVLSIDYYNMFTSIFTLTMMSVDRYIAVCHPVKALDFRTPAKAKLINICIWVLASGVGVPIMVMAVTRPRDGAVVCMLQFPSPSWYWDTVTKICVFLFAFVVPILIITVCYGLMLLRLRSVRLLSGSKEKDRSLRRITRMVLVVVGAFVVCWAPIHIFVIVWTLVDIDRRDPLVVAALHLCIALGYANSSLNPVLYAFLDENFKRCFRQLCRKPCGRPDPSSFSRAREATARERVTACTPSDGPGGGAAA
Data set [1] is described as follows: Plasma concentration of SRR G-1 in rats after oral dosing (LC-MS/MS). The class given is in vivo. The note with it: rat, individual animals (R1-R9); for Plasma Conc.: PO 10 mg/kg, listed as SRR G-1 Free Base. The text has this: The results are shown in Tables 22-24 for each respectively.
For another data set, the target named is T1, AR (Homo sapiens, UniProt P10275).
T1 sequence (P10275 1-920): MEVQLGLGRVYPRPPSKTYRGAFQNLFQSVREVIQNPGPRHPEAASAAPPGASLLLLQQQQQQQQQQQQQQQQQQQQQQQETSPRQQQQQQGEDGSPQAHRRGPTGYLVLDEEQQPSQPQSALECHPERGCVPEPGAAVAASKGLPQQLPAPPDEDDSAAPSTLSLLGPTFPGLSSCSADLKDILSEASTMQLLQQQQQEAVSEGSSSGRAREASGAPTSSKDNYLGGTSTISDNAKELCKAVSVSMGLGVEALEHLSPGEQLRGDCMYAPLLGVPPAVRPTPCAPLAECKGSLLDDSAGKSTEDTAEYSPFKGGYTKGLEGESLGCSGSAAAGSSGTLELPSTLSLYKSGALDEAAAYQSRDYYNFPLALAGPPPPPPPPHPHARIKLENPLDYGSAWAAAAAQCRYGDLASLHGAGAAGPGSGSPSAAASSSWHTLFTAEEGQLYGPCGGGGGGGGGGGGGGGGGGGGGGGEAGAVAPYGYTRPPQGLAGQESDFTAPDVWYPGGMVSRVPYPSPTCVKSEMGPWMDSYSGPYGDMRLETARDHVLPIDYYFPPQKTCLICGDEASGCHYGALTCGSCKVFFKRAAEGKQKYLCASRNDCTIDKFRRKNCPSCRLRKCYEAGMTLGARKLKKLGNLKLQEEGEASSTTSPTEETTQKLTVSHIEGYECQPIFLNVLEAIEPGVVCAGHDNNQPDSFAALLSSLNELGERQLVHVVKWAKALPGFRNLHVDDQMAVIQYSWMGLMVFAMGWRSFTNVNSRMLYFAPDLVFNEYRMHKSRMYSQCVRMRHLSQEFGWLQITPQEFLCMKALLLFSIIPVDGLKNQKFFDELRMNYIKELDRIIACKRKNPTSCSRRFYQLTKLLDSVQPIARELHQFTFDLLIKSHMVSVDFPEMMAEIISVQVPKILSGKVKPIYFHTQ
In words: Off target selectivity assay, Nuclear Hormone Receptor AR.

The target in another data set is T2, OCT2 (Homo sapiens, UniProt O15244).
T2 sequence (O15244 1-555): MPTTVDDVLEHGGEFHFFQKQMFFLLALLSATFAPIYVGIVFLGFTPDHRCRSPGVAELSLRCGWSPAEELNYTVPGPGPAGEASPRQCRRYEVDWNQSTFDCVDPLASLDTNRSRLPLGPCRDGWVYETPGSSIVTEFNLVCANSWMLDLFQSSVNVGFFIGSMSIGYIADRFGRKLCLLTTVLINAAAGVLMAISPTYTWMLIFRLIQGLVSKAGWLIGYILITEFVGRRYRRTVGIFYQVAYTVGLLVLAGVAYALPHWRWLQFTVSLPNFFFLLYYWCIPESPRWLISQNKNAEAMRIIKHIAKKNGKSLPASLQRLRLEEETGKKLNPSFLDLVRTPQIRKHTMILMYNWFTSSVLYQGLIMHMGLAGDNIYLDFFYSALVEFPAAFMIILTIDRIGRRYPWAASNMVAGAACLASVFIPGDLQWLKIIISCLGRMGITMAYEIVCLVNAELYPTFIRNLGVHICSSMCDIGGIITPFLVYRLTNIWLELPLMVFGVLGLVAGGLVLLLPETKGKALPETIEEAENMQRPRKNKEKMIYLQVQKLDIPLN
In words: Drug transporter fluorometric inhibition, OCT2. The class given is in vitro ADME. The method, then: (§5) Drug transporter (fluorometric inhibition)
(§6) The percent of control was calculated using the following equation. The percent of inhibition was calculated by subtracting the percent of control from 100. The IC50 value (concentration causing a half-maximal inhibition of the control value) was determined by non-linear regression analysis of the concentration-response curve using the Hill equation.
(§7) Compound is the individual reading in the presence of the test compound. T1 is the mean reading in the absence of the test compound. Background (for P-gp and BCRP) is the mean reading in the presence of the highest effective concentration of the reference inhibitor. Background (for OATP1B1, OATP1B3, OAT1, OAT3, and OCT2) is the mean reading in the absence of both the test compound and the substrate.

The next data set has as its target T3, OATP1B3 (Homo sapiens, UniProt Q9NPD5).
T3 sequence (Q9NPD5 1-702): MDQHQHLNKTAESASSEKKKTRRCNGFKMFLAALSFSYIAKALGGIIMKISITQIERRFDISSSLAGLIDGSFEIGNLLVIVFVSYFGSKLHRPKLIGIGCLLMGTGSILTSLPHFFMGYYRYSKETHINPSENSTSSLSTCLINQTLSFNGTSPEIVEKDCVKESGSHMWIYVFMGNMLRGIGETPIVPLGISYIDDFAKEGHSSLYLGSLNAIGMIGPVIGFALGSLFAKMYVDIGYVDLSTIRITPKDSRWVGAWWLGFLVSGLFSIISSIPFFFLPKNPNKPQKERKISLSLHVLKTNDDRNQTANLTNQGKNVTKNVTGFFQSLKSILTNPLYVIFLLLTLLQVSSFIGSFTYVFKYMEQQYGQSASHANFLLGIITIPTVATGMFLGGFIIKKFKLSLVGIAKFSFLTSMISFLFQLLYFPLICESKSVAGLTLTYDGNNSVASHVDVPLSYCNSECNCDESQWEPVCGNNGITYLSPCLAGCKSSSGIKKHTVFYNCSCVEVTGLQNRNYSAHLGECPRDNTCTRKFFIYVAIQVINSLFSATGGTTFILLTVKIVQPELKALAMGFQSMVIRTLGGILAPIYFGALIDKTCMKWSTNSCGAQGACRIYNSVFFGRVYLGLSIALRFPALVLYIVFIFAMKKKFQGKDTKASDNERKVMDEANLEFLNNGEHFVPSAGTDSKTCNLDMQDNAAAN
Description: Drug transporter fluorometric inhibition, OATP1B3. The class given is in vitro ADME. As to the method: as §5, §6, §7

Several values for one entry are separate records, joined by “and”; a condition that tells them apart may be missing. Equal values may be shown once.

As usually defined, the IC50 is the concentration needed to halve the response being measured. Broadly, the inhibition is the percentage by which the read-out fell short of the control.

Chain of HTR2B (P41595 whole entry): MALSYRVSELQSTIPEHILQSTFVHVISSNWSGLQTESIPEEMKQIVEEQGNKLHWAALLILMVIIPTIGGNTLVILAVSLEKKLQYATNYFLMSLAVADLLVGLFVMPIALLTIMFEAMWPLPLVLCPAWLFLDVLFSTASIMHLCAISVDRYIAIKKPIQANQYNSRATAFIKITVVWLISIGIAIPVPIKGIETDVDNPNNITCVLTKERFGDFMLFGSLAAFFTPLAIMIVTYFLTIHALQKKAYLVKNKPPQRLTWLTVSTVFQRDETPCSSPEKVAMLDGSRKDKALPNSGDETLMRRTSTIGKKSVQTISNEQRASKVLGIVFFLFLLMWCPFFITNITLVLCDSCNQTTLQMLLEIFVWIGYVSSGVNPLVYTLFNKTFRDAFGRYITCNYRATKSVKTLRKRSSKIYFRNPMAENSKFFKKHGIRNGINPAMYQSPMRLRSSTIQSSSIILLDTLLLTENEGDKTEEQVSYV

Consider `CC(=O)c1ccc2c(c1)[C@@H]1C=CC[C@@H]1[C@H](c1cc3c(cc1Br)OCO3)N2` (single isomer, unassigned) [SRR G-1], for which the IC50 worked out at 8.2 µM on HTR2B and 0.87 µM at OPRD1. The concentration at 1 h in data set [1] (male, plasma, po, 10 mg/kg, time 1.00 h, read-out: Plasma Conc.) came to 3.96 ng/mL. For the same compound, the concentration at 8 h in data set [1] (male, plasma, po, 10 mg/kg, time 8.00 h, read-out: Plasma Conc.) stood at 1.72 ng/mL. Besides, the concentration at 24 h in data set [1] (male, plasma, po, 10 mg/kg, time 24.0 h, LLOQ 0.100 ng/mL, read-out: Plasma Conc.) is 0.127 ng/mL. In addition, the “Plasma Conc.” value was 1.91 ng/mL and 2.60 ng/mL and 1.23 ng/mL in data set [1] (time 0.500 h); 6.03 ng/mL and 3.15 ng/mL in data set [1] (time 1.00 h); 2.96 ng/mL and 7.56 ng/mL and 2.71 ng/mL in data set [1] (time 2.00 h); 2.18 ng/mL and 4.67 ng/mL and 1.39 ng/mL in data set [1] (time 4.00 h); 1.58 ng/mL and 1.47 ng/mL in data set [1] (time 8.00 h); 0.169 ng/mL and BQL in data set [1] (time 24.0 h, LLOQ 0.100 ng/mL).
Regarding `CC(=O)c1ccc2c(c1)[C@H]1C=CC[C@H]1[C@@H](c1cc3c(cc1Br)OCO3)N2` [RSS G-1, 1-((3aR,4S,9bS)-4-(6-bromobenzo[d][1,3]dioxol-5-yl)-3a,4,5,9b-tetrahydro-3H-cyclopenta[c]quinolin-8-yl)ethan-1-one], at AR, the IC50 amounted to 4.76 µM. The inhibition at 10 µM on OCT2 was found to be 53.2%; on OATP1B3, 74.3%.
